Assay [1] deals with T1, 5-hydroxytryptamine receptor 6 (Homo sapiens, UniProt P50406). Put plainly: Displacement of [3H]-LSD from cloned human 5HT6 receptor expressed in HeLa cells. In kind it is cell-based. (Displacement assays read how much labelled ligand stays bound in the presence of the test substance.)
Assay [2] has as its target T1, 5-hydroxytryptamine receptor 6. Put plainly: Antagonist activity at cloned human 5HT6 receptor expressed in HeLa cells assessed as production of cAMP. In kind it is functional, cell-based.
Assay [3] addresses T2, 5-hydroxytryptamine receptor 2C (Homo sapiens, UniProt P28335).
T2 sequence (P28335 whole entry): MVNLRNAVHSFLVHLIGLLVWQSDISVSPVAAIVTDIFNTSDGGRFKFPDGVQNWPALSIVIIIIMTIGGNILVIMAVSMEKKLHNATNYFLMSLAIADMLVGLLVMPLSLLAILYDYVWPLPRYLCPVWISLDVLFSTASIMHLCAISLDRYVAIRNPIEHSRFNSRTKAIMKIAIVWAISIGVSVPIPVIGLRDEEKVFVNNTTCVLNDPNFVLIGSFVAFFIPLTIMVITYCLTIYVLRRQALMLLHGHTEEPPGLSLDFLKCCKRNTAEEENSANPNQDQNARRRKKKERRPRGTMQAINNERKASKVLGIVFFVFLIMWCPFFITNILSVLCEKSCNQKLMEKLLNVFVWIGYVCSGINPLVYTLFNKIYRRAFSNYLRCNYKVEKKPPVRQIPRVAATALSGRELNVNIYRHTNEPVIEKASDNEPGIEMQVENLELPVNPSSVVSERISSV
As to the kind of experiment: Inhibition of 5HT2C.

The values below come from ChEMBL document CHEMBL1155096, “A regiospecific synthesis of a series of 1-sulfonyl azepinoindoles as potent 5-HT6 ligands” (Bioorg Med Chem Lett, 2008).

SMILES strings stand for the structures. The source made the active and inactive calls. No cut-off for these calls is given here.

T1 sequence (P50406 whole entry): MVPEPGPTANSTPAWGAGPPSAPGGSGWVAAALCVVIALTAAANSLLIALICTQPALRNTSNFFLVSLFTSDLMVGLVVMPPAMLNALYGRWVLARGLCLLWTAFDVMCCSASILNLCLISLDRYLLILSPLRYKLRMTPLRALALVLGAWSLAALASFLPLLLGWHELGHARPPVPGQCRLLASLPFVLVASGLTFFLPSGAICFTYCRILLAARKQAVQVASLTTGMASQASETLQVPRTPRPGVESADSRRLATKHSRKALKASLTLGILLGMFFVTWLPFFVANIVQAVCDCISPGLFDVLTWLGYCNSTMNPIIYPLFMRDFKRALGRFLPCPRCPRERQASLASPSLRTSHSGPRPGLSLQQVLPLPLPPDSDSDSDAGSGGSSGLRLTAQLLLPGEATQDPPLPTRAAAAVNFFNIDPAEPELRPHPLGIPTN

As usually defined, the Ki is the dissociation constant of the complex between target and ligand, obtained from inhibition or displacement. A higher Ki goes with weaker binding. In assay [1], `O=S(=O)(c1ccccc1Cl)n1c2c(c3ccccc31)CCNCC2` came in with a Ki of 19 nM. In addition, the outcome in assay [2] was Active.

Take `O=S(=O)(c1ccc(Cl)cc1)n1c2c(c3ccccc31)CCNCC2`: in assay [1], the Ki amounted to 18 nM. Also, the result in assay [2] was Active.

`COc1cccc(S(=O)(=O)n2c3c(c4ccccc42)CCN(C2CCCCC2)CC3)c1` returned an inhibition constant (Ki) in assay [1] of 253 nM. Also, the result in assay [2] was Active.

As to `O=S(=O)(c1cccc(Cl)c1)n1c2c(c3ccccc31)CCNCC2`, in assay [1], affinity was put at a Ki of 41 nM. Also, the outcome in assay [2] was Active.

`O=S(=O)(c1ccccc1)n1c2c(c3ccccc31)CCNCC2` gave a Ki in assay [1] of 193 nM. Also, in assay [2], the result was Active.

In the case of `O=S(=O)(c1ccc(C(F)(F)F)cc1)n1c2c(c3ccccc31)CCNCC2`, the Ki in assay [1] was 46 nM. For the same molecule, the outcome in assay [2] was Active.

Take `COc1cccc(S(=O)(=O)n2c3c(c4ccccc42)CCN(C(C)C)CC3)c1`: in assay [1], the Ki stood at 85 nM. For the same molecule, the result in assay [2] was Active.

`O=S(=O)(c1ccc(F)cc1)n1c2c(c3ccccc31)CCNCC2` returned a Ki in assay [1] of 23 nM. In assay [2], the outcome was Active.

On to `COc1cccc(S(=O)(=O)n2c3c(c4ccccc42)CCN(CCc2ccccc2)CC3)c1`, for which the Ki in assay [1] was found to be 504 nM. Besides, the outcome in assay [2] was Active.

In assay [1], `CCN1CCc2c(n(S(=O)(=O)c3ccccc3)c3ccccc23)CC1` gave a Ki of 12 nM. For the same molecule, in assay [2], the result was Active.

In assay [1], `Cc1ccc(S(=O)(=O)n2c3c(c4ccccc42)CCNCC3)cc1` registered a Ki of 29 nM. In addition, in assay [2], the result was Active.

The molecule `O=S(=O)(c1cccc(F)c1)n1c2c(c3ccccc31)CCNCC2` returned an inhibition constant (Ki) in assay [1] of 33 nM. The outcome in assay [2] was Active.

Broadly, the IC50 is the concentration that gives 50% inhibition. Turning to `COc1ccccc1S(=O)(=O)n1c2c(c3ccccc31)CCNCC2`, the results for the Ki in assay [3] and in assay [1] were 14 nM and 19 nM, respectively. In addition, in assay [2], the IC50 was 162 nM.

In assay [1], `O=S(=O)(c1cccc(C(F)(F)F)c1)n1c2c(c3ccccc31)CCNCC2` registered a Ki of 89 nM. The result in assay [2] was Active.

On to `O=S(=O)(c1ccc2c(Cl)cccc2c1)n1c2c(c3ccccc31)CCNCC2`, for which the Ki in assay [1] turned out to be 24 nM. The outcome in assay [2] was Active.

For the molecule `COc1ccc(S(=O)(=O)n2c3c(c4ccccc42)CCNCC3)cc1`, in assay [1], the affinity corresponds to a Ki of 33 nM. Further, the outcome in assay [2] was Active.

In the case of `COc1cccc(S(=O)(=O)n2c3c(c4ccccc42)CCN(Cc2ccccc2)CC3)c1`, the Ki in assay [1] was found to be 319 nM. The outcome in assay [2] was Active.

For the molecule `COc1cccc(S(=O)(=O)n2c3c(c4ccccc42)CCN(C2CCCC2)CC3)c1`, the affinity in assay [1], expressed as Ki, was 324 nM. The outcome in assay [2] was Active.

The molecule `Cc1cccc(S(=O)(=O)n2c3c(c4ccccc42)CCNCC3)c1` showed a Ki in assay [1] of 68 nM. Also, the result in assay [2] was Active.

`CCCN1CCc2c(n(S(=O)(=O)c3cccc(OC)c3)c3ccccc23)CC1`: the Ki in assay [1] turned out to be 124 nM. Besides, in assay [2], the outcome was Active.

Molecule `COc1cccc(S(=O)(=O)n2c3c(c4ccccc42)CCNCC3)c1` returned a Ki in assay [1] of 12 nM. Besides, the result in assay [2] was Active.

Molecule `COc1cccc(S(=O)(=O)n2c3c(c4ccccc42)CCN(C)CC3)c1` returned a Ki in assay [1] of 19 nM. Further, in assay [2], the outcome was Active.

`CCN1CCc2c(n(S(=O)(=O)c3cccc(OC)c3)c3ccccc23)CC1` showed a Ki in assay [1] of 50 nM. For the same molecule, the outcome in assay [2] was Active.
